One assay addresses SARS-CoV-2 ORF7a (Severe acute respiratory syndrome coronavirus 2, UniProt P0DTC7). Nature of the assay: biochemical. The class given is binding, SARS-CoV-2 (Wuhan variant).
A further assay relates to SARS-CoV-2 proteins. The class given is binding, SARS-CoV-2 (Wuhan variant).

SARS-CoV-2 ORF7a, sequence (P0DTC7 16-96): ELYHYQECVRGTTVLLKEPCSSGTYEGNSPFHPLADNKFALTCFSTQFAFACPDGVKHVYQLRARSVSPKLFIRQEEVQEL

Molecule `CC[C@H](C)[C@H](NC(=O)[C@H](CCCCN)NC(=O)[C@H](CCC(=O)O)NC(=O)[C@H](CCCCN)NC(=O)[C@H](CO)NC(=O)[C@H](CCCCN)NC(=O)[C@H](CCCNC(=N)N)NC(=O)[C@H](Cc1ccccc1)NC(=O)[C@H](Cc1ccccc1)NC(=O)[C@H](CC(=O)O)NC(=O)CNC(=O)[C@H](CC(C)C)NC(=O)[C@@H](N)CC(C)C)C(=O)NCC(=O)N[C@@H](CCCCN)C(=O)N[C@@H](CCC(=O)O)C(=O)N[C@@H](Cc1ccccc1)C(=O)N[C@@H](CCCCN)C(=O)N[C@@H](CCCNC(=N)N)C(=O)N[C@H](C(=O)N[C@H](C(=O)N[C@@H](CCC(N)=O)C(=O)N[C@@H](CCCNC(=N)N)C(=O)N[C@H](C(=O)N[C@@H](CCCCN)C(=O)N[C@@H](CC(=O)O)C(=O)N[C@@H](Cc1ccccc1)C(=O)N[C@@H](CC(C)C)C(=O)N[C@@H](CCCNC(=N)N)C(=O)N[C@@H](CC(N)=O)C(=O)N[C@@H](CC(C)C)C(=O)N[C@H](C(=O)N1CCC[C@H]1C(=O)N[C@@H](CCCNC(=N)N)C(=O)N[C@H](C(=O)N[C@@H](CCC(=O)O)C(=O)N[C@@H](CO)C(=O)O)[C@@H](C)O)C(C)C)[C@@H](C)CC)C(C)C)[C@@H](C)CC` [LL-37] came in with a Kd at SARS-CoV-2 ORF7a of 140 ± 80 nM.

“synthetic control peptide: synthetic control peptide with an alpha-helical structure and a length of 29 amino acids, purchased from Biomatik (DKDGDLKTQIEKLWTEVNALKEIQALQTVCL)”: the “interaction with the SARS-CoV-2 proteins” value in the assay with SARS-CoV-2 proteins is “did not show an interaction with the SARS-CoV-2 proteins”.

(Values after PMC12500691 (Frontiers in Cellular and Infection Microbiology, 2025).)
